Measured values as given in patent publication US10294202B2, “Pyrrolidinones as herbicides” (FMC Corporation, priority 2013, dated 2019).
Read-outs that look alike come from different tables or passages of the source.

What was measured:
barnyardgrass [1] = assay: Test C pre-/postemergence herbicide test; format: in vivo, Echinochloa crus-galli
Outline: (§1)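 Plants grown and held in a greenhouse for 13 to 15 days post-spray, then rated 0–100 by visual comparison with controls. Pre treatments targeted seeds in loam and sand; post treatments targeted 1- to 4-leaf plants in peat-based potting medium.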

wheat (winter wheat) = assay: Test C pre-/postemergence herbicide test; format: in vivo, Triticum aestivum
Outline: as §1

pigweed = assay: Test C pre-/postemergence herbicide test; format: in vivo, Amaranthus retroflexus
Outline: as §1

velvetleaf = assay: Test C pre-/postemergence herbicide test; format: in vivo, Abutilon theophrasti
Outline: as §1

galium = assay: Test C pre-/postemergence herbicide test; format: in vivo, Galium aparine
Outline: as §1

barnyardgrass [2] = assay: Test A pre-/postemergence herbicide test; format: in vivo, Echinochloa crus-galli; conditions: for pest or weed control at 500 g/ha: 500 g ai/ha, 0 to 100 scale (0 no effect, 100 complete control)
Outline: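 Approximately 10 days after treatment in the greenhouse, plants were compared with untreated controls and given a 0–100 visual injury rating. Applications: preemergence directed soil spray; postemergence on 2–10 cm plants at the one- to two-leaf stage.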

blackgrass = assay: Test C pre-/postemergence herbicide test; format: in vivo, Alopecurus myosuroides
Outline: as §1

crabgrass, large = assay: Test C pre-/postemergence herbicide test; format: in vivo, Digitaria sanguinalis
Outline: as §1

soybean = assay: Test C pre-/postemergence herbicide test; format: in vivo, Glycine max
Outline: as §1

oat, wild = assay: Test C pre-/postemergence herbicide test; format: in vivo, Avena fatua; conditions: Postemergence
Outline: as §1

oilseed rape = assay: Test C pre-/postemergence herbicide test; format: in vivo, Brassica napus
Outline: as §1

foxtail, giant = assay: Test C pre-/postemergence herbicide test; format: in vivo, Setaria faberii
Outline: as §1

[3] = Postemergence, 31 g ai/ha, scale 0 (no effect) to 100 (complete control)
[4] = Postemergence, 62 g ai/ha, scale 0 to 100 (0 no effect, 100 complete control)
[5] = Postemergence, 125 g ai/ha, scale 0 to 100 (0 no effect, 100 complete control)
[6] = Postemergence, 250 g ai/ha, scale 0 to 100 (0 no effect, 100 complete control)
[7] = Preemergence, 31 g ai/ha, scale 0 to 100, 0 is no effect and 100 is complete control
[8] = Preemergence, 62 g ai/ha, scale 0 to 100
[9] = Preemergence, 125 g ai/ha, scale 0 to 100 (0 no effect, 100 complete control)

O=C1NCC(c2ccc(C(F)(F)F)cc2)C1C(=O)Nc1cccc(F)c1F (stereo not drawn) [Compound 80, N-(2,3-difluorophenyl)-2-oxo-4-[4-(trifluoromethyl)phenyl]-3-pyrrolidinecarboxamide]
Plant response rating, Barnyardgrass (barnyardgrass [1]; [3]): 0
Plant response rating, Barnyardgrass (barnyardgrass [1]; [4]): 20
Plant response rating, Barnyardgrass (barnyardgrass [1]; [5]): 35
Plant response rating, Barnyardgrass (barnyardgrass [1]; [6]): 70
Barnyardgrass plant response rating (barnyardgrass [1]; [7]): 85
Plant response rating, Barnyardgrass (barnyardgrass [1]; [8]): 95
Plant response rating, Barnyardgrass (barnyardgrass [1]; [9]): 95
Plant response rating (scale of 0 to 100; 0 is no effect, 100 is complete control), Barnyardgrass (barnyardgrass [1]; Preemergence, 250 g ai/ha): 95
Plant response rating, Wheat (wheat (winter wheat); [3]): 0
Plant response rating, Wheat (wheat (winter wheat); [4]): 0
Plant response rating, Wheat (wheat (winter wheat); [5]): 0
Plant response rating, Wheat (wheat (winter wheat); [6]): 0
Wheat plant response rating (wheat (winter wheat); [7]): 0
Plant response rating, Wheat (wheat (winter wheat); [8]): 5
Plant response rating, Wheat (wheat (winter wheat); [9]): 80
Plant response rating (scale of 0 to 100), Wheat (wheat (winter wheat); Preemergence, 250 g ai/ha): 80
Plant response rating, Pigweed (pigweed; [3]): 40
Plant response rating, Pigweed (pigweed; [4]): 40
Plant response rating, Pigweed (pigweed; [5]): 60
Plant response rating, Pigweed (pigweed; [6]): 75
Pigweed plant response rating (pigweed; [7]): 75
Plant response rating, Pigweed (pigweed; [8]): 90
Plant response rating, Pigweed (pigweed; [9]): 90
Plant response rating (scale of 0 to 100), Pigweed (pigweed; Preemergence, 250 g ai/ha): 90
Plant response rating, Velvetleaf (velvetleaf; [3]): 15
Plant response rating, Velvetleaf (velvetleaf; [4]): 15
Plant response rating, Velvetleaf (velvetleaf; [6]): 25
Velvetleaf plant response rating (velvetleaf; [7]): 0
Plant response rating, Velvetleaf (velvetleaf; [8]): 30
Plant response rating, Velvetleaf (velvetleaf; [9]): 35
Plant response rating (scale of 0 to 100), Velvetleaf (velvetleaf; Preemergence, 250 g ai/ha): 50
Plant response rating, Galium (galium; [3]): 5
Plant response rating, Galium (galium; [4]): 55
Plant response rating, Galium (galium; [5]): 65
Plant response rating, Galium (galium; [6]): 65
Galium plant response rating (galium; [7]): 5
Plant response rating, Galium (galium; [8]): 90
Plant response rating, Galium (galium; [9]): 90
Plant response rating (scale of 0 to 100), Galium (galium; Preemergence, 250 g ai/ha): 90
pest or weed control at 125 g/ha (barnyardgrass [2]; Echinochloa crus-galli, post-emergence, 240 h, Postemergence, 125 g ai/ha, 0 to 100 scale, 0 no effect, 100 complete control, read-out: Plant response rating, Barnyardgrass): 80%
pest or weed control at 500 g/ha (barnyardgrass [2]; Echinochloa crus-galli, post-emergence, 240 h, Postemergence, read-out: Plant response rating, Barnyardgrass): 80%
pest or weed control at 500 g/ha (barnyardgrass [2]; Echinochloa crus-galli, pre-emergence, 240 h, preemergence, read-out: Plant response rating, Barnyardgrass): 80%
Barnyardgrass plant response rating (barnyardgrass [2]; Preemergence, 125 g ai/ha, visual rating on 0 to 100 scale (0 no effect, 100 complete control)): 80
Plant response rating, Blackgrass (blackgrass; [3]): 0
Plant response rating, Blackgrass (blackgrass; [4]): 0
Plant response rating, Blackgrass (blackgrass; [5]): 0
Plant response rating, Blackgrass (blackgrass; [6]): 5
Blackgrass plant response rating (blackgrass; [7]): 30
Plant response rating, Blackgrass (blackgrass; [8]): 80
Plant response rating, Blackgrass (blackgrass; [9]): 85
Plant response rating (scale of 0 to 100), Blackgrass (blackgrass; Preemergence, 250 g ai/ha): 90
Plant response rating, Crabgrass, Large (crabgrass, large; [3]): 5
Plant response rating, Crabgrass, Large (crabgrass, large; [4]): 40
Plant response rating, Crabgrass, Large (crabgrass, large; [5]): 65
Plant response rating, Crabgrass, Large (crabgrass, large; [6]): 75
Crabgrass, Large plant response rating (crabgrass, large; [7]): 95
Plant response rating, Crabgrass, Large (crabgrass, large; [8]): 98
Plant response rating, Crabgrass, Large (crabgrass, large; [9]): 98
Plant response rating (scale of 0 to 100), Crabgrass, Large (crabgrass, large; Preemergence, 250 g ai/ha): 100
Plant response rating, Soybean (soybean; [3]): 0
Plant response rating, Soybean (soybean; [4]): 5
Plant response rating, Soybean (soybean; [5]): 5
Plant response rating, Soybean (soybean; [6]): 25
Soybean plant response rating (soybean; [7]): 0
Plant response rating, Soybean (soybean; [8]): 0
Plant response rating, Soybean (soybean; [9]): 0
Plant response rating (scale of 0 to 100), Soybean (soybean; Preemergence, 250 g ai/ha): 0
Plant response rating, Oat, Wild (oat, wild; 31 g ai/ha, scale 0 (no effect) to 100 (complete control)): 0
Plant response rating, Oat, Wild (oat, wild; 62 g ai/ha, scale 0 to 100 (0 no effect, 100 complete control)): 0
Plant response rating, Oat, Wild (oat, wild; 125 g ai/ha, scale 0 to 100 (0 no effect, 100 complete control)): 0
Plant response rating, Oat, Wild (oat, wild; 250 g ai/ha, scale 0 to 100 (0 no effect, 100 complete control)): 0
Plant response rating, Oilseed Rape (oilseed rape; [3]): 0
Plant response rating, Oilseed Rape (oilseed rape; [4]): 0
Plant response rating, Oilseed Rape (oilseed rape; [5]): 20
Plant response rating, Oilseed Rape (oilseed rape; [6]): 60
Oilseed Rape plant response rating (oilseed rape; [7]): 5
Plant response rating, Oilseed Rape (oilseed rape; [8]): 85
Plant response rating, Oilseed Rape (oilseed rape; [9]): 90
Plant response rating (scale of 0 to 100), Oilseed Rape (oilseed rape; Preemergence, 250 g ai/ha): 90
Plant response rating, Foxtail, Giant (foxtail, giant; [3]): 0
Plant response rating, Foxtail, Giant (foxtail, giant; [4]): 0
Plant response rating, Foxtail, Giant (foxtail, giant; [5]): 45
Plant response rating, Foxtail, Giant (foxtail, giant; [6]): 45
Foxtail, Giant plant response rating (foxtail, giant; [7]): 90
Plant response rating, Foxtail, Giant (foxtail, giant; [8]): 95
Plant response rating, Foxtail, Giant (foxtail, giant; [9]): 98
Plant response rating (scale of 0 to 100), Foxtail, Giant (foxtail, giant; Preemergence, 250 g ai/ha): 98
